Paper PMC7279038, “Antioxidant and Neuroprotective Effects Induced by Cannabidiol and Cannabigerol in Rat CTX-TNA2 Astrocytes and Isolated Cortexes” (International Journal of Molecular Sciences, 2020)

How the values were obtained:
[1] = tested on: hypothalamic 5-HT; set-up: method as in PMID 31941059; conditions: cited from earlier work
[2] = tested on: CTX-TNA2 rat astrocyte cell line; experiment: MTT assay; assay type: cell-based; conditions: for cell proliferation (MTT): basal conditions, 48 h, cannabidiol 1000 nM, cannabigerol 100 and 1000 nM; for protection from H2O2 cytotoxicity (MTT): cells challenged with 300 µM H2O2, CBD 1000 nM, CBG 1 nM
Protocol: The CTX-TNA2 rat astrocytes were purchased from the European Collection of Cell Cultures (ECACC), Sigma-Aldrich, Milan, Italy, and cultured as already indicated. Cells were grown in Dulbecco’s Modified Eagle Medium supplemented with 10% of FBS and penicillin–streptomycin (100 µgmL^−1) (all from EuroClone SpA Life-Sciences-Division, Milan, Italy) and maintained in a humified atmosphere of 5% CO2 at 37 °C. Cells were subcultivated at a ratio of 1.2 to 1.8 and the medium was changed every 3 days. CTX-TNA2 astrocytes were plated in 25 or 75 cm^2 flasks, according to experimental needing and cells between the eight and the 15 passage were used.
When indicated, the cells were treated with H2O2 300 µM for three hours and different concentrations of CBD (1–1000 nM) and CBG (1–1000 nM). The stock solutions were diluted in cell medium to the point that the concentration of DMSO in the samples was less than 0.0003%. Therefore, the addition of DMSO to the control samples was not necessary.
The 3 [4–dimethylthiazol-2yl]-2,5-diphenyl tetrazolium bromide (MTT) growth assay (Sigma-Aldrich S.r.l.) was used to assess cell proliferation as previously described. Briefly, The CTX-TNA2 cells were seeded into 96-well plate at 8 × 10^3 cells/well and treated as described above. After 24 and 48 h, a medium containing 0.5 mg/mL MTT was added to the cells, and the cells were incubated at 37 °C for 3 h. Following a further incubation of 30 min in DMSO, the absorbance at 570 nm was measured using a Multiscan GO microplate spectrophotometer (Thermo Fisher Scientific, Waltham, MA, USA).

[3] = tested on: calcium/calmodulin-dependent protein kinase type II subunit alpha (CAMK2A); experiment: Untargeted proteomic analysis of cortexes, CAMK2A; set-up: species or system rat; conditions: CBD 1000 nM, CBG 1 nM
Protocol: Sprague–Dawley rats (200–250 g) were sacrificed by CO2 inhalation (Italian Health Ministry authorization N. F4738.N.XTQ, delivered on 11th November 2018) and isolated prefrontal cortex specimens were immediately explanted and incubated in thermostatic shaking bath at 37 °C for 1 h (incubation period), in Krebs–Ringer buffer at the following K^+ concentrations:
Cortexes were stimulated with CBD (1000 nM) and CBD (1 nM). Afterwards, specimens were homogenized in perchloric acid solution (0.05 M) for the extraction and quantification of nitrites, via the aforementioned colorimetric Griess assay, and serotonin (5-HT), 5-hydroxyindoleacetic (5HIIA),3-hydroxykinurenine (3-HK) and kinurenic acid (KA) (ng/mg wet tissue) via high performance liquid chromatography analysis. Additionally, an untargeted proteomic analysis was carried out on the cortex homogenate. The analytical protocols for 5-HT, 5HIIA, 3-HK, KA and protein level determinations are described below. […]
After protein quantification, a volume corresponding to 50 μg of proteins was loaded onto a Nanosep 10-kDa-cutoff filter (Pall Corporation, Michigan, USA) and digested according to the protocol we routinely use in our laboratory, adapted from Distler et al. Briefly, the sample was washed twice with 200 μL urea buffer (8M urea, 100 mM Tris pH 8.5 in milliQ water) to remove the detergents present in the lysis buffer. […]

[4] = tested on: rat hypothalamic neurons; set-up: method as in PMID 31941059; conditions: ex vivo model, hydrogen peroxide; cited from earlier work

| Compound | basal hypothalamic 5-HT levels [1] | cell proliferation (MTT) [2] | protection from H2O2 cytotoxicity (MTT) [2] | effect on K+ 60 mM-induced reduction in CAMK2A level [3] | neuroprotection [4] |
| --- | --- | --- | --- | --- | --- |
| C=C(C)[C@@H]1CCC(C)=C[C@H]1c1c(O)cc(CCCCC)cc1O [CBD, Cannabidiol] | stimulate basal hypothalamic 5-HT levels | increase in cell proliferation | effective in protecting the cells from oxidative damage | blocking the downregulation | – |
| CCCCCc1cc(O)c(C/C=C(\C)CCC=C(C)C)c(O)c1 [CBG, cannabigerol] | – | increase in cell proliferation | effective at the lowest concentration (1 nM) | completely ineffective | neuroprotection only at low concentrations |
